Reference: PubChem BioAssay (NCI)
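Where inhibition never reached the appropriate level, the endpoint shown equals the highest concentration tested. Otherwise, values were interpolated linearly from a five-concentration, 48-hour dose response in 96-well plates. Here, GI50 denotes the concentration required for 50% inhibition of growth. TGI: concentration producing complete growth inhibition.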

Experiments:
Assay in all cases: NCI-60 cell line screen, 48 h
[1] = tested on: BT-549 breast
[2] = tested on: SN12C renal
[3] = tested on: HCC-2998 colon
[4] = tested on: NCI-H522 lung
[5] = tested on: HOP-92 NSCLC
[6] = tested on: HS 578T breast
[7] = tested on: MALME-3M melanoma
[8] = tested on: SNB-75 CNS
[9] = tested on: TK-10 renal
[10] = tested on: SF-539 CNS
[11] = tested on: SF-268 CNS
[12] = tested on: 786-0 renal
[13] = tested on: K-562 leukemia
[14] = tested on: SK-MEL-28 melanoma
[15] = tested on: SK-MEL-2 melanoma
[16] = tested on: SF-295 CNS
[17] = tested on: HCT-15 colon
[18] = tested on: NCI-H23 lung
[19] = tested on: SK-OV-3 ovarian
[20] = tested on: SR leukemia
[21] = tested on: MDA-MB-231 breast
[22] = tested on: SW-620 colon
[23] = tested on: OVCAR-3 ovarian
[24] = tested on: COLO 205 colon
[25] = tested on: T-47D breast
[26] = tested on: NCI-H460 lung
[27] = tested on: IGROV1 ovarian
[28] = tested on: NCI/ADR-RES ovarian
[29] = tested on: MCF7 breast
[30] = tested on: RXF 393 renal
[31] = tested on: DU-145 prostate
[32] = tested on: NCI-H226 lung
[33] = tested on: PC-3 prostate
[34] = tested on: U251 CNS
[35] = tested on: OVCAR-8 ovarian
[36] = tested on: M14 melanoma
[37] = tested on: CCRF-CEM leukemia
[38] = tested on: SNB-19 CNS
[39] = tested on: HOP-62 NSCLC
[40] = tested on: HT29 colon
[41] = tested on: ACHN renal
[42] = tested on: EKVX NSCLC
[43] = tested on: KM12 colon
[44] = tested on: A549 NSCLC
[45] = tested on: UO-31 renal
[46] = tested on: OVCAR-5 ovarian
[47] = tested on: A498 renal
[48] = tested on: HCT-116 colon
[49] = tested on: CAKI-1 renal
[50] = tested on: UACC-62 melanoma
[51] = tested on: MOLT-4 leukemia
[52] = tested on: MDA-MB-435
[53] = tested on: SK-MEL-5 melanoma
[54] = tested on: RPMI-8226 leukemia
[55] = tested on: UACC-257 melanoma

SMILES: COc1cc2c(=O)n(CCCn3ccnc3)c3c4cc5c(cc4ccc3c2cc1OC)OCO5
- GI50 [1]: 0.701 µM
- TGI [1]: > 100 µM
- GI50 [2]: 0.635 µM
- TGI [2]: > 100 µM
- GI50 [3]: 13.4 µM
- TGI [3]: > 100 µM
- GI50 [4]: 0.324 µM
- TGI [4]: 17.1 µM
- GI50 [5]: 0.831 µM
- TGI [5]: 28.9 µM
- GI50 [6]: 2.33 µM
- TGI [6]: > 80.6 µM
- GI50 [7]: 2.02 µM
- TGI [7]: > 100 µM
- GI50 [8]: 0.298 µM
- TGI [8]: 9.45 µM
- GI50 [9]: 36 µM
- TGI [9]: > 100 µM
- GI50 [10]: 0.489 µM
- TGI [10]: 1.8 µM
- GI50 [11]: 0.448 µM
- TGI [11]: 14.9 µM
- GI50 [12]: 1.93 µM
- TGI [12]: > 100 µM
- GI50 [13]: 0.669 µM
- TGI [13]: > 100 µM
- GI50 [14]: 2 µM
- TGI [14]: > 100 µM
- GI50 [15]: 8.06 µM
- TGI [15]: > 83.8 µM
- GI50 [16]: 0.331 µM
- TGI [16]: 12.5 µM
- GI50 [17]: 1.17 µM
- TGI [17]: > 100 µM
- GI50 [18]: 0.599 µM
- TGI [18]: > 100 µM
- GI50 [19]: 0.443 µM
- TGI [19]: 11.3 µM
- GI50 [20]: 0.203 µM
- TGI [20]: > 100 µM
- GI50 [21]: 1.38 µM
- TGI [21]: > 100 µM
- GI50 [22]: 0.49 µM
- TGI [22]: > 100 µM
- GI50 [23]: 0.344 µM
- TGI [23]: > 100 µM
- GI50 [24]: 0.291 µM
- TGI [24]: > 100 µM
- GI50 [25]: 0.245 µM
- TGI [25]: 7.82 µM
- GI50 [26]: 0.293 µM
- TGI [26]: > 100 µM
- GI50 [27]: 1.16 µM
- TGI [27]: > 86.6 µM
- GI50 [28]: 1.08 µM
- TGI [28]: > 100 µM
- GI50 [29]: 0.0999 µM
- TGI [29]: > 100 µM
- GI50 [30]: 0.316 µM
- TGI [30]: 14.3 µM
- GI50 [31]: 0.51 µM
- TGI [31]: > 100 µM
- GI50 [32]: 0.246 µM
- TGI [32]: > 100 µM
- GI50 [33]: 0.774 µM
- TGI [33]: > 100 µM
- GI50 [34]: 0.393 µM
- TGI [34]: 15.8 µM
- GI50 [35]: 1.46 µM
- TGI [35]: 41.9 µM
- GI50 [36]: 0.698 µM
- TGI [36]: > 100 µM
- GI50 [37]: 0.34 µM
- TGI [37]: > 100 µM
- GI50 [38]: 0.496 µM
- TGI [38]: 42.8 µM
- GI50 [39]: 0.305 µM
- TGI [39]: 5.37 µM
- GI50 [40]: 0.492 µM
- TGI [40]: > 100 µM
- GI50 [41]: 0.278 µM
- TGI [41]: 1.36 µM
- GI50 [42]: 9.72 µM
- TGI [42]: > 100 µM
- GI50 [43]: 1.37 µM
- TGI [43]: > 100 µM
- GI50 [44]: 1.96 µM
- TGI [44]: > 100 µM
- GI50 [45]: 0.262 µM
- TGI [45]: > 100 µM

SMILES: CC1(C)CCC2(C(=O)O)CC[C@]3(C)C(=CCC4C5(C)CC[C@H](OC6OC(C(=O)O)C(O)C(OC7OC(CO)C(O)C(O)C7O)C6OC6OC(CO)C(O)C(O)C6O)C(C)(C)C5CCC43C)C2C1 (stereo partly drawn)
- GI50 [1]: > 100 µM
- TGI [1]: > 100 µM
- GI50 [46]: > 100 µM
- TGI [46]: > 100 µM
- GI50 [2]: 84 µM
- TGI [2]: > 100 µM
- GI50 [47]: > 100 µM
- TGI [47]: > 100 µM
- GI50 [4]: 38.4 µM
- TGI [4]: > 100 µM
- GI50 [5]: > 100 µM
- TGI [5]: > 100 µM
- GI50 [6]: 97.4 µM
- TGI [6]: > 100 µM
- GI50 [48]: > 100 µM
- TGI [48]: > 100 µM
- GI50 [9]: > 100 µM
- TGI [9]: > 100 µM
- GI50 [10]: > 100 µM
- TGI [10]: > 100 µM
- GI50 [11]: > 100 µM
- TGI [11]: > 100 µM
- GI50 [12]: > 100 µM
- TGI [12]: > 100 µM
- GI50 [13]: 81.1 µM
- TGI [13]: > 100 µM
- GI50 [15]: > 100 µM
- TGI [15]: > 100 µM
- GI50 [49]: > 100 µM
- TGI [49]: > 100 µM
- GI50 [50]: 23 µM
- TGI [50]: 50.7 µM
- GI50 [16]: 31.1 µM
- TGI [16]: > 100 µM
- GI50 [17]: 94.6 µM
- TGI [17]: > 100 µM
- GI50 [18]: 20.2 µM
- TGI [18]: 42.7 µM
- GI50 [19]: > 100 µM
- TGI [19]: > 100 µM
- GI50 [20]: 15.6 µM
- TGI [20]: > 100 µM
- GI50 [21]: 45 µM
- TGI [21]: > 100 µM
- GI50 [22]: > 100 µM
- TGI [22]: > 100 µM
- GI50 [23]: > 100 µM
- TGI [23]: > 100 µM
- GI50 [24]: > 100 µM
- TGI [24]: > 100 µM
- GI50 [25]: > 100 µM
- TGI [25]: > 100 µM
- GI50 [51]: 86.3 µM
- TGI [51]: > 100 µM
- GI50 [26]: > 100 µM
- TGI [26]: > 100 µM
- GI50 [27]: > 100 µM
- TGI [27]: > 100 µM
- GI50 [52]: > 100 µM
- TGI [52]: > 100 µM
- GI50 [53]: > 100 µM
- TGI [53]: > 100 µM
- GI50 [28]: > 100 µM
- TGI [28]: > 100 µM
- GI50 [29]: 53.5 µM
- TGI [29]: > 100 µM
- GI50 [30]: > 100 µM
- TGI [30]: > 100 µM
- GI50 [32]: > 100 µM
- TGI [32]: > 100 µM
- GI50 [33]: 20.6 µM
- TGI [33]: 38.5 µM
- GI50 [34]: 32.3 µM
- TGI [34]: 89.4 µM
- GI50 [35]: > 100 µM
- TGI [35]: > 100 µM
- GI50 [36]: 79.9 µM
- TGI [36]: > 100 µM
- GI50 [37]: > 100 µM
- TGI [37]: > 100 µM
- GI50 [38]: > 100 µM
- TGI [38]: > 100 µM
- GI50 [39]: > 100 µM
- TGI [39]: > 100 µM
- GI50 [40]: 40.9 µM
- TGI [40]: > 100 µM
- GI50 [42]: > 100 µM
- TGI [42]: > 100 µM
- GI50 [43]: > 100 µM
- TGI [43]: > 100 µM
- GI50 [54]: 50.9 µM
- TGI [54]: > 100 µM
- GI50 [55]: > 100 µM
- TGI [55]: > 100 µM
- GI50 [44]: > 100 µM
- TGI [44]: > 100 µM
- GI50 [45]: 63.5 µM
- TGI [45]: > 100 µM
